Reference: the CheMixHub ionic liquid set

Experiment: xn = mol fraction of the nth substance listed
Conditions: 100 kPa

CC(C)C[C@H](N)C(=O)O + CCCC[n+]1ccn(C)c1.F[B-](F)(F)F + O
viscosity [mPa·s]
Conditions | 293.15 K | 298.15 K | 303.15 K | 308.15 K | 313.15 K | 318.15 K
x1 = 0.0002738, x2 = 0 | 1.013 | 0.9 | 0.807 | 0.729 | 0.663 | 0.605
x1 = 0.0002786, x2 = 0.0003728 | 1.044 | 0.93 | 0.848 | 0.763 | 0.705 | 0.65
x1 = 0.0002797, x2 = 0.0007255 | 1.076 | 0.964 | 0.881 | 0.802 | 0.749 | 0.694
x1 = 0.0002864, x2 = 0.001099 | 1.109 | 0.998 | 0.919 | 0.845 | 0.794 | 0.74
x1 = 0.0004577, x2 = 0.0007254 | 1.081 | 0.97 | 0.887 | 0.808 | 0.754 | 0.698
x1 = 0.0004593, x2 = 0 | 1.017 | 0.905 | 0.811 | 0.733 | 0.667 | 0.608
x1 = 0.0004597, x2 = 0.001099 | 1.115 | 1.004 | 0.925 | 0.85 | 0.8 | 0.746
x1 = 0.0004649, x2 = 0.0003727 | 1.049 | 0.935 | 0.852 | 0.768 | 0.709 | 0.654
x1 = 0.0006294, x2 = 0.0003726 | 1.054 | 0.94 | 0.857 | 0.772 | 0.714 | 0.659
x1 = 0.0006321, x2 = 0 | 1.022 | 0.909 | 0.815 | 0.736 | 0.67 | 0.612
x1 = 0.0006374, x2 = 0.0007252 | 1.086 | 0.975 | 0.892 | 0.812 | 0.759 | 0.704
x1 = 0.0006474, x2 = 0.001099 | 1.121 | 1.01 | 0.931 | 0.856 | 0.805 | 0.751
x1 = 0.0008066, x2 = 0 | 1.026 | 0.913 | 0.819 | 0.74 | 0.674 | 0.616
x1 = 0.0008173, x2 = 0.0003726 | 1.059 | 0.945 | 0.862 | 0.777 | 0.718 | 0.663
x1 = 0.0008279, x2 = 0.0007251 | 1.092 | 0.98 | 0.897 | 0.817 | 0.764 | 0.708
x1 = 0.0008314, x2 = 0.001099 | 1.127 | 1.016 | 0.936 | 0.861 | 0.81 | 0.756
x1 = 0.0009955, x2 = 0 | 1.031 | 0.917 | 0.823 | 0.744 | 0.678 | 0.619
x1 = 0.001003, x2 = 0.0003725 | 1.064 | 0.949 | 0.866 | 0.781 | 0.722 | 0.667
x1 = 0.001004, x2 = 0.000725 | 1.097 | 0.985 | 0.902 | 0.822 | 0.768 | 0.712
x1 = 0.00101, x2 = 0.001099 | 1.132 | 1.021 | 0.941 | 0.866 | 0.815 | 0.761
x1 = 0.001168, x2 = 0 | 1.035 | 0.921 | 0.826 | 0.747 | 0.681 | 0.622
x1 = 0.001172, x2 = 0.0007248 | 1.102 | 0.99 | 0.906 | 0.826 | 0.772 | 0.716
x1 = 0.001177, x2 = 0.0003724 | 1.069 | 0.954 | 0.871 | 0.785 | 0.726 | 0.671
x1 = 0.001183, x2 = 0.001099 | 1.138 | 1.026 | 0.946 | 0.871 | 0.82 | 0.766
x1 = 0.00135, x2 = 0.0003724 | 1.074 | 0.959 | 0.875 | 0.789 | 0.73 | 0.675
x1 = 0.001357, x2 = 0 | 1.04 | 0.925 | 0.83 | 0.751 | 0.684 | 0.625
x1 = 0.001369, x2 = 0.001098 | 1.144 | 1.031 | 0.951 | 0.876 | 0.825 | 0.771
x1 = 0.00137, x2 = 0.0007247 | 1.108 | 0.995 | 0.911 | 0.831 | 0.777 | 0.721
x1 = 0.001535, x2 = 0 | 1.044 | 0.929 | 0.834 | 0.755 | 0.688 | 0.629
x1 = 0.001541, x2 = 0.0003723 | 1.08 | 0.963 | 0.88 | 0.794 | 0.734 | 0.679
x1 = 0.001554, x2 = 0.001098 | 1.15 | 1.037 | 0.957 | 0.881 | 0.83 | 0.776
x1 = 0.001557, x2 = 0.0007246 | 1.113 | 0.999 | 0.915 | 0.835 | 0.781 | 0.725
x1 = 0.00172, x2 = 0 | 1.048 | 0.933 | 0.838 | 0.758 | 0.691 | 0.632
x1 = 0.00172, x2 = 0.0003722 | 1.085 | 0.968 | 0.884 | 0.797 | 0.738 | 0.682
x1 = 0.00172, x2 = 0.0007244 | 1.117 | 1.003 | 0.92 | 0.839 | 0.785 | 0.729
x1 = 0.001727, x2 = 0.001098 | 1.156 | 1.042 | 0.962 | 0.886 | 0.835 | 0.781
